row,SMILES,melting point
1,O=CNc1cc([N+](=O)[O-])cc([N+](=O)[O-])c1,121 to 123 °C
2,CCCCCCCCCCCCCCc1ccc(O)c(CC)c1,45.5 to 46.5 °C
3,Cc1ccc(C(=O)Nc2c[nH]nc2C(=O)NCCOC(C)C)cn1,168 to 169 °C
4,O=C(NCc1ccc2c(c1)OCO2)c1ccc2[nH]c(=O)n(Cc3cccs3)c(=O)c2c1,270 °C
5,Cc1coc(C)c1C(=O)OC1CC(C)(C)N(CC#N)C(C)(C)C1,156 °C
6,CCCCC1=Nc2ccccc2SN1,153 to 155 °C
7,N#Cc1cc2[nH]c(=O)c3n[nH]c(=O)n3c2cc1-n1ccnc1,> 300 °C
8,O=C(O)c1ccc(C23CC4CC(C2)CC(c2ccc(C(=O)O)cc2)(C4)C3)cc1,304 to 306 °C
9,CN(C)Cc1ccc(CSCCNC(=O)NCCCN(C)CCN(Cc2ccc(F)cc2)c2ccccn2)o1,102 °C
10,CCOC(=O)[C@]1(O)C=C[C@@H](NC(C)=O)[C@@H]2OC(C)(C)O[C@@H]21,97 to 99 °C
11,CC(=O)OCC1OC(N=[N+]=[N-])C(OC(C)=O)C(OC(C)=O)C1OC(C)=O (configuration not stated),52 to 53 °C
12,CCC1N=C(c2ccccc2F)c2c(ccc(N=C=O)c2Cl)N(C)C1=O (configuration not stated),243 to 244 °C
13,CC1CCC(C(C)C)C(OC(=O)C2(CC(N)=O)C(=O)N(Cc3ccc(Br)cc3F)C(=O)c3cccn32)C1 (configuration not stated),122 to 123 °C
14,O=C(O)C(=O)c1ccc(OCCOc2cccc(F)c2)cc1,108 to 109 °C
15,CCOC(=O)CCc1cccc(-c2c(CC(=O)Nc3ccc(F)cc3C(F)(F)F)c(=O)oc3cc(Cl)c(C)cc23)c1,121 to 123 °C
16,Oc1ccc2c(c1)CN(Cc1ccc(Cl)cc1)CC2,177 to 178 °C
17,COC(=O)NN=Cc1ccnc2ccccc12,83.5 °C
18,COc1ccc(S(N)(=O)=O)cc1C(=O)NCc1ccc(OCCN(C)C)cc1,122 to 123 °C
19,CC(C)(C)OC(=O)NC1CCN(Cc2ccccc2)C1 (configuration not stated),114 to 115 °C
20,CC(C)Cc1cnc(O)c([N+](=O)[O-])c1,161 to 163 °C
21,CCC(CC)n1cc(C)nc(N2CCc3cc(OC)cc(C)c32)c1=O,138 to 140 °C
22,CC(C)Oc1ccc(CCCOc2nn(Cc3ccccc3)cc2CC(=O)O)c(Oc2ncc(Cl)cc2Cl)c1,111 to 113 °C
23,O=C(Nc1ccc2nc(CN3CCOCC3)ccc2c1)c1ccc(-c2ccc(F)cc2)cc1,211 to 212 °C
24,COc1ccc(NC(=S)Nc2cscc2C)c(N)c1,143 to 146 °C
25,N#CCNSc1ccc(Cl)cc1,74 to 76 °C
26,CCOC(=O)C1=C(COC2CCN(C)CC2)NC(C)=C(C(=O)OC)C1c1cccc(C(F)(F)F)c1Cl (configuration not stated),180 to 181 °C

row,SMILES,melting point
1,CC(C)N(C(=O)n1oc(=O)n(Cc2ccccc2)c1=O)c1ccc(F)cc1,95 to 96 °C
2,CNC(=O)Cc1c(C(=O)c2cc(C)ccn2)[nH]c2cc(Cl)ccc12,231 °C
3,CN1CCCC(OC(=O)Nc2ccc(Br)cc2)C1 (configuration not stated),127 °C
4,COC(=O)NCCc1ccc(C(=O)OC)c(S(N)(=O)=O)c1,146 to 149 °C
5,Cc1nc(C)c(C(=O)Nc2cc(Oc3ccc4nc(NC(=O)C5CC5)cn4n3)ccc2F)o1,202 °C
6,COc1ccc(C2=NN(c3ccccc3)C(c3ccc(N)cc3)C2)cc1 (configuration not stated),164 to 166 °C
7,CCOC(=O)CSc1nc(Cl)cc(NN=Cc2ccc(Cl)cc2)n1,162 to 165 °C
8,CCN1C(=O)c2cnc(-c3ccccc3)nc2N(C(=O)CCl)c2ccccc21,147 to 148 °C
9,CC(C)(C)[N+]([O-])=CCc1ccccc1,143 °C
10,CC1=NN(c2cc(-c3ccnc(Nc4cccc(Cl)c4)n3)ccn2)C(=O)CC1,189 to 192 °C
11,CCCCCc1c(OCc2ccccc2)ccc(C(C)=O)c1O,61 to 62 °C
12,O=C1CCCC12CNc1ccc(Cl)cc12 (configuration not stated),201 to 202 °C
13,COc1ccc2c(c1)c(CC(=O)O)c(C)n2CC1CCCCC1,173 to 175 °C
14,CCn1ncc(C(=S)c2ccc3c(c2C)/C(=N/OC)CCS3)c1O,92 to 97 °C
15,Cc1nc(S(=O)(=O)CC(=O)OCc2cccs2)nc(C)c1Br,87 to 88 °C
16,CCOC(=O)C(Cc1ccccc1)NC(=O)N(N(CCCl)S(C)(=O)=O)S(C)(=O)=O (configuration not stated),106 to 107 °C
17,Cc1nc(C(=O)Cl)c(CCc2ccccc2)o1,38 to 39 °C
18,O=C(NCc1ccc(Cl)cc1)c1cnc2sc(CO)cc2c1O,205 to 210 °C
19,CC12CC3OC3CC1CCC1C2CCC2(C)C(O)C(N3CCC4(CC3)OCCO4)CC12 (configuration not stated),186 to 188 °C
20,CCOC(=O)C(Cc1ccc(C(F)(F)F)cc1)C(=O)c1ccncc1 (configuration not stated),64 to 65 °C
21,CC(/C=C/CC(C)c1cc(C(C)(C)C)cc(C(C)(C)C)c1)=C\C(=O)O (configuration not stated),127 to 128 °C
22,Oc1cccc(C2CCCN2Cc2ccccn2)c1 (configuration not stated),96 to 98 °C
23,CC(=O)Oc1cn(Cc2c(F)cccc2F)c2sc(-c3ccc([N+](=O)[O-])cc3)c(C)c2c1=O,216 to 217 °C
24,O=C1Nc2c(F)cc(F)cc2C1c1ncnc2c1cnn2C1CCCC1 (configuration not stated),> 300 °C
25,COc1ccc(S(N)(=O)=O)cc1C(C)=O,203 to 206 °C
26,COc1cc(C#CC(=O)c2ccccc2)cc(OC)c1OC,158 to 160 °C

row,SMILES,melting point
1,CCSc1nc2c(C(=O)OC)sc(C)c2[nH]1,159 to 160 °C
2,NC(=O)c1ccc(F)c2c1CC(N(CCCc1c[nH]c3c(Cl)cccc13)C1CCC1)CO2 (configuration not stated),154 to 163 °C
3,Cn1cc(C2=C(c3cn(C)c4cc(CO)ccc34)C(=O)NC2=O)c2ccccc21,245 to 246 °C
4,CCCCCCCCCCCCCCCCCCOc1ccc(OCCCOc2ccc(OCc3ccccc3)cc2)c(C(=O)OC)c1,79 to 81 °C
5,CCNC(=O)c1c(C)cccc1N(C)C(C)(C)C,101 to 103 °C
6,CSC1=Nc2ccc(C)cc2Cn2nnnc21,157 to 160 °C
7,Nc1nnc2c3c(c(N4CCOCC4)nn12)CCCC3,260 to 262 °C
8,CN1CCC(NC(c2cccc(C#CCCCCN)c2)c2nc3ccccc3[nH]2)CC1 (configuration not stated),79 °C
9,CC1(C)OC[C@H](Cc2ccccc2)N1C(=O)C(=O)c1ccn(-c2ccc(-c3ccccc3)cc2)c1,150 to 152 °C
10,CCc1[nH]n(C2CCCC2)c2nc(-c3cccc(OCc4ccncc4)c3)nc(=O)c1-2,230 to 232 °C
11,CCOc1ccc(-c2nn(C(C)c3oc4ccccc4c(=O)c3-c3cccc(F)c3)c3ncnc(N)c23)cc1F (configuration not stated),216 to 218 °C
12,C#CCn1c(-c2cc(Cl)nc(Cl)c2)nc(C)c(CC)c1=O,143 to 144 °C
13,Cc1cc(C)cc(OCC(=O)c2ccccc2Br)c1,74 °C
14,CC(C)(C)OC(=O)C(Br)=CC1C(C(=O)O)C1(C)C (configuration not stated),76 °C
15,COC(=O)c1cc2cc(OC)c(OC)cc2cc1C(=O)O,181 to 183 °C
16,COc1cccc(-n2c(=O)c3c(c4cccnc42)OCC3)c1,> 260 °C
17,Cc1cc(=O)c(Oc2ccc(Cl)cc2)c(-c2ccc(S(N)(=O)=O)cc2)o1,221 °C
18,CN(Cc1sc2c(=O)c(C(=O)NCc3ccc(Cl)cc3)cn(C)c2c1COCC[Si](C)(C)C)CC(O)c1cc2ccccc2o1 (configuration not stated),157 to 159 °C
19,O=c1c2ccccc2nc(CCl)n1-c1ccc(Cl)cc1,234 to 235 °C
20,CC(C)(C)COc1ccc(N(CC(=O)O)C(=O)c2ccn(-c3ccc(F)cc3)c2)cc1C#N,248 to 249 °C
21,CC1CC(=O)NN=C1c1ccc(NC(=O)CCBr)cc1 (configuration not stated),215 to 217 °C
22,O=C(CN1CSCC1=O)N1CCC(c2c[nH]c3ccccc23)CC1,174 to 175 °C
23,O=C(NC(=O)c1c(F)cccc1F)Nc1cncc(C(F)(F)F)c1,233 to 235 °C
24,O=C(O)c1cnn(-c2ccc(F)cc2)c1Cl,230 to 231 °C
25,FC(F)Oc1ccc(-c2nnc(Nc3ccc(Cl)c(Cl)c3)s2)cc1,265 to 266 °C
26,COc1ccc(C#Cc2ccccc2)cc1,57 to 58 °C

row,SMILES,melting point
1,O=C(O)c1ccccc1OCCN1CCC(c2cn(CCOc3ccc4c(c3)OCO4)c3ccccc23)CC1,123 to 125 °C
2,O=C(O)C1CCN(Cc2cc(Br)cc3[nH]c(=O)c(=O)[nH]c23)CC1,> 300 °C
3,NC(=O)c1[nH]c2ccc(Cl)cc2c1S(=O)(=O)c1cc(Cl)cc(Cl)c1,258 to 260 °C
4,Clc1cccc(-c2nc3cccc(NCc4ccccn4)c3o2)c1,115 to 116 °C
5,CCCCc1nn2cc(-c3ccccc3)nc2n1Cc1ccc(-c2ccccc2-c2nnn[nH]2)cc1,> 160 °C
6,COc1ccc(-c2ccc3c(C(=O)N(C)C)c(-c4ccccc4)ccc3c2)cc1,171 to 173 °C
7,CCc1nnc2c(Cl)nc3cc(F)ccc3n12,203 to 205 °C
8,CNc1cncc(C(=O)O)c1,239 to 242 °C
9,CN1CCC(=O)N(c2ccc(Cl)cc2Cl)C1=O,122 to 125 °C
10,CON(C)C(=O)c1ccc(F)cc1,9 °C
11,CCOC(=O)C(=COS(=O)(=O)c1ccc(C)cc1)c1ccccc1,159 to 160 °C
12,Cc1c(CCCCCCCC(=O)O)cccc1C(=O)c1ccc(Cl)cc1,70 °C
13,O=C1CCCc2scnc21,121 to 122 °C
14,CCCCCCCCCCCCCCCCCC(O)c1ccc(C2=NC(C)(C)CO2)c(Cl)c1 (configuration not stated),74 to 78 °C
15,CCCCCCCCCCCC1CC(O)C(CCCCCC)C(=O)O1 (configuration not stated),98 to 99 °C
16,CC(C)n1nc(-c2sc(C(=O)NC3CCCCC3)nc2-c2ccccc2)ccc1=O,225 to 226 °C
17,CNC(=O)ON=C1N=C(C(C)C)C(C)(C)S1,89 to 91 °C
18,CCSC(=O)Cc1csc(N)n1,76 to 77 °C
19,O=C(Nc1ccc(-n2nc(C(F)(F)F)cc2-c2cccs2)cc1)c1ccncc1F,153 to 155 °C
20,N=C(N)c1cccc(S(=O)(=O)c2ccc(OC[C@@H]3C[C@@H](CC(=O)O)C(=O)N3CCCc3ccccc3)cc2)c1,205 to 207 °C
21,CCOC(=O)c1cn(CC)c2nc(N3CCN(CC)CC3)ncc2c1=O,161 °C
22,COc1nc2cc(C)c(C)cc2nc1C(=O)O,180 to 182 °C
23,c1ccc(C2CCN(c3nsc4ccccc34)CC2)cc1,175 to 177 °C
24,CCOC(=O)c1ccc(COc2cccc3occc23)cc1,70 to 72 °C

# From a melting point compilation (Tetko et al.; mined from patent text by program, amines drawn as free bases though some values may be those of a salt)
